Reference: patent publication US20180021429A1, “ANTICANCER AGENTS OR ANTIMETASTATIC AGENTS USING FSTL1 AND COMBINATION DRUG THEREOF” (PHARMA FOODS INTERNATIONAL CO., LTD., priority 2015, published 2018)

Test system: mouse lung cancer 3LL
Experiment: Combined use with CPA in subcutaneously mouse lung cancer 3LL-transplanted model (Example 35)
Assay type: in vivo
Details: CPA 2 mg/mouse/day i.p. days 4-7; anti-FSTL1 antibody 5 mg/kg i.p. days 8 and 11

O=P1(N(CCCl)CCCl)NCCCO1 (stereo not shown) [CPA, cyclophosphamide]
subcutaneous tumor growth / antitumor effect: strongly suppressed subcutaneous tumor growth
